The source of these data is patent US20200061038A1, “THERAPEUTIC AGENT FOR FIBROSIS AND INHIBITOR OF NUCLEAR TRANSLOCATION OF PHOSPHORYLATED SMAD” (NATIONAL UNIVERSITY CORPORATION CHIBA UNIVERSITY, priority 2016, published 2020).

Assay [1] concerns lactosylceramide synthase. Kind of assay: Lactosylceramide synthesis activation test. Conditions: HFL1 cells; PPMP 3 μM, NB-DNJ 100 μM applied 30 minutes before TGFβ1 (10 ng/mL) stimulation. The assay is classed as cell-based, human. The method, then: The experiment was conducted by referring to Chatterjee S, Pandey A. The Yin and Yang of lactosylceramide metabolism: implications in cell function. Biochim Biophys Acta. 2008 March; 1780 (3); 370-82.
The sample was put through quantitative determination of protein, and then 300 μM of […], 100 μM of uridine diphosphate galactose (UDP-Gal, containing 7.5×10^5 dpm of [^3H] UDP-Gal), and reaction buffer, were added to 50 μL of sample, to a final volume of 100 μL/tube. This reaction sample was incubated for 2 hours at 37° C., and finally 50 mM of KCl and 25 mM of EDTA were added to stop the reaction. Thereafter, lipids were extracted from the sample according to the Bligh-Dyer method, and all lipids were expanded using TLC (chloroform:methanol:water=100:42:6). The separated lipids were stained using iodine gas, silica gel at the same position as the lactosylceramide target was scraped off, and its radiation activity was measured using a liquid scintillation counter (Aloka LSC-5100 manufactured by Hitachi-Aloka Medical), and then the amount of synthesized lactosylceramide was calculated. It should be noted that, for the background sample(control), a sample with zero incubation time was used.
Whether or not TGFβ1 treatment would increase the synthesis of lactosylceramide was examined in vitro. […]

The test system of another assay is PKCδ. Kind of assay: Translocation of PKCδ into the cellular membrane in HFL1 cells. The class given is cell-based, human. To be noted: PPMP 3 μM, Rottlerin 1 μM applied beforehand, two hours after TGFβ1 10 ng/mL. The method, then: HFL1 cells were inoculated onto a 3.5-cm glass-bottom dish by 1.0×10^4 cells/dish, and then cultured in 2.0 mL of DMEM containing 10% FBS, to achieve 70% confluence. The cells were washed in HBSS containing 0.1% BSA, and then cultured in DMEM containing 0.1% BSA for 48 hours without serum.
Thereafter, the medium was replaced by a DMEM containing 0.1% BSA, and stimulation was given for a specified period using each reagent (each inhibitor was applied 30 minutes before the stimulant), after which each sample was fixed with 4% paraformaldehyde (PFA) at 4° C. for 15 minutes. Thereafter, as deemed appropriate, the sample was permeabilized (0.3% saponin, room temperature, 1 hour) and blocked (3% BSA, room temperature, 1 hour), with a primary antibody applied overnight at 4° C., and a secondary antibody applied for 1 hour at room temperature. For immunostaining of Smad and phosphorylated Smad, ribonuclease A (RNase, Worthington Biochemical) (200 μg/mL, room temperature, 30 minutes) and propidium iodide (PI, Cayman Chemical) (20 μg/mL, room temperature, 30 minutes) were applied to stain the nucleus, and the stained images were observed using a confocal microscope (FV500 manufactured by Olympus).
In general, activation of PKC is observed in the form of its translocation into the cellular membrane; accordingly, involvement of lactosylceramide was examined using the translocation of PKCδ into the cellular membrane as an indicator.

Assay [2] deals with αSMA. Kind of assay: αSMA expression (western blot) in TGFβ1-stimulated HFL1 cells. The assay is classed as cell-based, human. To be noted: PPMP 3 μM, NB-DNJ 100 μM applied 30 minutes before TGFβ1 (10 ng/mL), 24 hours. The method, then:
Human pulmonary fibroblast (HFL1) (ATCC CCL-153) cells were cultured under the conditions of 95% air-5% CO2 and 37° C., using a Dulbecco's Modified Eagle Medium (DMEM) containing 10% fetal bovine serum (FBS), 100 μg/mL streptomycin, and 66.7 μg/mL penicillin.
How an increase in lactosylceramide synthesis activity due to TGFβ1 affects the fibrosing of tissues was examined based on the expression level of αSMA, which is a fibrosing marker protein.

The test system of assay [3] is patient's pulmonary fibroblast cells. Kind of assay: αSMA expression (western blot) in patient's pulmonary fibroblast cells. The class given is cell-based, human. To be noted: PPMP 0.5 μM, 1.0 μM; NB-DNJ 100 μM, 200 μM; cultured 48 hours. How it is done:
Post-operative lung tissues were obtained from a lung transplant patient who was suffering from a serious case of pleuroparenchymal fibroelastosis.
The lung tissues were shredded, rinsed with phosphate-buffered saline (PBS), and then incubated at 37° C. for 15 minutes under gentle shaking, using 1 mg/ml collagenase type I (Worthington, Lakewood, N.J., USA), 0.5 mg/ml disperse (Life Technologies), 2 U/ml DNase (QIAGEN, Valencia, Calif., USA), 0.1 mg/ml streptomycin, and 100 U/ml penicillin.
The tissues were washed twice in DMEM, and then transferred into an 80-cm^2 culture flask and cultured at 37° C. in 5% CO2.
Cell growth was monitored every week, with the culture medium changed every four days. Once the flask reached confluent cultures, the cells were collected as cells at passage 0, and the cells obtained at passage 3 were used in the experiment as the patient's pulmonary fibroblast cells.
Patient's pulmonary fibroblast cells were cultured under the conditions of 95% air-5% CO2 and 37° C., using a Dulbecco's Modified Eagle Medium (DMEM) containing 10% fetal bovine serum (FBS), 100 μg/mL streptomycin, and 66.7 μg/mL penicillin.
For orientation: Immunoblotting shows a protein as a band on a membrane.

In another assay the test system is Smad2/3. To be noted: HFL1 cells; PPMP 3 μM applied 30 minutes before TGFβ1 (10 ng/mL) treatment; over time.
The test system of a further assay is Smad2. Kind of assay: Smad2 nuclear localization (immunofluorescent staining, confocal) in HFL1 cells. Conditions: pretreatment PPMP 3 μM or NB-DNJ 100 μM, TGFβ1 10 ng/mL, 3 hours. The class given is cell-based, human. How it is done:
For immunostaining of Smad and phosphorylated Smad, ribonuclease A (RNase, Worthington Biochemical) (200 μg/mL, room temperature, 30 minutes) and propidium iodide (PI, Cayman Chemical) (20 μg/mL, room temperature, 30 minutes) were applied to stain the nucleus, and the stained images were observed using a confocal microscope (FV500 manufactured by Olympus).
When localization of Smad2/3 was observed, on the other hand, Smad2/3 accumulated in the nucleus in 3 hours after the single stimulation of TGFβ1 (10 ng/mL).

The subject of assay [4] is αSMA. Kind of assay: Bleomycin-induced pulmonary fibrosis mouse model: lung αSMA western blot. The class given is in vivo, C57BL/6J mice. To be noted: mice; 20 mg/kg NB-DNJ into the bronchial tubes on days 7, 8, 9 after bleomycin; lungs on 14th day. How it is done:
50 μL of 3 mg/kg bleomycin hydrochloride/saline solution (Nippon Kayaku Co., Ltd.) was administered through the bronchial tubes to C57BL/6J mice (male, 8 to 12 weeks old) under tribromoethanol-ether anesthesia, to prepare mouse models for pulmonary fibrosis. 50 μL of saline solution was administered in the same manner to a control group not treated with bleomycin hydrochloride.
Seven, eight and nine days after the administration of bleomycin, 50 μL of 20 mg/kg NB-DNJ/saline solution was administered into the bronchial tubes of the mice under tribromoethanol-ether anesthesia. 50 μL of saline solution was administered into the bronchial tubes to a control group of mice not administered with NB-DNJ.
On the 14th day after the administration of bleomycin, each mouse was subjected to thoracotomy under deep ether anesthesia, and its entire body was perfused with PBS from the left ventricle using a syringe needle, while blood was removed from the lungs through the right ventricle, and the lungs were removed.
Thereafter, the tissues were further pulverized using a homogenizer, and centrifuged at 15000 rpm and 4° C. for 30 minutes.

In assay [5] the test system is bleomycin-induced fibrosing of the lung. Kind of assay: Bleomycin-induced pulmonary fibrosis mouse model: hematoxylin eosin-stained lung slices. To be noted: mice, lungs on 14th day. The class given is in vivo, C57BL/6J mice. How it is done:
50 μL of 3 mg/kg bleomycin hydrochloride/saline solution (Nippon Kayaku Co., Ltd.) was administered through the bronchial tubes to C57BL/6J mice (male, 8 to 12 weeks old) under tribromoethanol-ether anesthesia, to prepare mouse models for pulmonary fibrosis. 50 μL of saline solution was administered in the same manner to a control group not treated with bleomycin hydrochloride. Seven, eight and nine days after the administration of bleomycin, 50 μL of 20 mg/kg NB-DNJ/saline solution was administered into the bronchial tubes of the mice under tribromoethanol-ether anesthesia. 50 μL of saline solution was administered into the bronchial tubes to a control group of mice not administered with NB-DNJ. For 7 to 13 consecutive days after the administration ofbleomycin, 0.2 mL of 600 mg/kg NB-DNJ/saline solution was orally administered daily (once a day). As control group mice which were not administrated with NB-DNJ, 0.2 mL of saline solution was orally administered. On the 14th day after the administration of bleomycin, each mouse was subjected to thoracotomy under deep ether anesthesia, and its entire body was perfused with PBS from the left ventricle using a syringe needle, while blood was removed from the lungs through the right ventricle, and the lungs were removed. The lungs were soaked in 4% paraformaldehyde and fixed overnight at 4° C. […]

Protocol for Smad2/3: HFL1 cells were inoculated onto a six-well plate by 1.0×10^5 cells/well, and then cultured in 2.0 mL of DMEM containing 10% FBS, to achieve 70% confluence. The cells were washed using Hanks' balanced salt solution (HBSS) containing 0.1% bovine serum albumin (BSA) (4.2 mM NaHCO3, 137 mM NaCl, 5.36 mM KCl, 0.4 mM MgSO4.7H2O, 0.34 mM Na2HPO4.12H2O, 5.55 mM glucose, 0.44 mM KH2PO4, 0.72 mM CaCl2.H2O, pH=7.4), and then cultured in a DMEM containing 0.1% BSA for 48 hours without serum. […]
The cells were crushed according to the vortex method, centrifuged under the conditions of 15000 rpm and 4° C. for 30 minutes, and the supernatant was taken as a sample. Quantitative determination of protein was performed according to the Bradford method, and a specified amount of protein was separated by SDS-polyacrylic amide gel electrophoresis. […]
Thereafter, the PVDF film was soaked in an ECL solution and fluorometric detection was performed using an image capture/analysis system (ChemiDocMP System manufactured by Bio-Rad). The detected bands were converted to numerical values using image processing software (ImageJ).

For the compound “1-phenyl-2-hexadecanoyl amino-3-morpholino-1-propanol [PPMP]”, the “activity of the lactosylceramide synthase after TGFβ1 stimulation” value in assay [1] was “suppressed the activity of the lactosylceramide synthase significantly”. The “translocation of PKCδ into the cellular membrane due to TGFβ1” value with PKCδ is given as “translocation of PKCδ into the cellular membrane was suppressed”. Further, in the assay with αSMA [2], the “increase in the αSMA expression level due to TGFβ1” value is reported as “suppressed increase in the αSMA expression level”. For the same compound, in assay [3], the “expression of αSMA in patient's pulmonary fibroblast cells” value is on record as “the expression of αSMA is suppressed”. For the same compound, the “phosphorylation levels of Smad2/3” value in the assay with Smad2/3 is reported as “did not change the phosphorylation levels of Smad2/3 over time”. In addition, the “accumulation of Smad2 in the nucleus due to TGFβ1” value in the assay on Smad2 is recorded as “suppressed the accumulation of Smad2 in the nucleus”.

On to `CCCCN1C[C@H](O)[C@@H](O)[C@H](O)[C@H]1CO` [NB-DNJ, N-butyl deoxynojirimycin], for which the “activity of the lactosylceramide synthase after TGFβ1 stimulation” value in assay [1] is recorded as “suppressed the activity of the lactosylceramide synthase significantly”. Also, the “increase in the αSMA expression level due to TGFβ1” value with αSMA [2] was “suppressed increase in the αSMA expression level”. For the same compound, the “expression of αSMA in patient's pulmonary fibroblast cells” value in assay [3] is given as “the expression of αSMA is suppressed”. The “expression of αSMA in lung in the presence of bleomycin” value in the assay with αSMA [4] is reported as “the expression of αSMA is suppressed”. For the same compound, the “bleomycin-induced fibrosing of the lung, bronchial-tube-administration” value in assay [5] (20 mg/kg NB-DNJ into the bronchial tubes on days 7, 8, 9 after bleomycin) was “suppress the bleomycin-induced fibrosing of the lung”. Further, in assay [5] (600 mg/kg NB-DNJ orally once a day, days 7 to 13 after bleomycin), the “bleomycin-induced fibrosing of the lung, oral administration” value is “suppress the bleomycin-induced fibrosing of the lung”. Also, the “accumulation of Smad2 in the nucleus due to TGFβ1” value with Smad2 is “suppressed the accumulation of Smad2 in the nucleus”.
